Two compounds from patent publication US9034922B2, “Composition for maintaining function of platelets” (THE UNIVERSITY OF TOKYO, priority 2010, dated 2015) can be followed below.

In assay [1] the target is T1, Matrix metalloproteinase 8 (MMP-8) (Homo sapiens, UniProt P22894).
T1 construct: purchased Calbiochem 444229
Description: Enzyme inhibition experiment, MMP-8. It counts as biochemical. The following applies: 3163 substrate, 37° C., 5 hours. The procedure:
(§1) The enzyme reaction was carried out using the enzymes and substrates. Specifically, if necessary, the enzyme was activated in advance with APMA (final concentration 1 mmol/L, p-aminophenylmercuric acetate, manufactured by Sigma-Aldrich Co., A9563) according to information from the manufacturer. Then, in a 96-well plate for fluorescence measurement, 90 μL of an enzyme solution prepared with Assay Buffer A (50 mmol/L Tris-HCl buffer (pH 7.5) containing 200 mmol/L sodium chloride, 5 mmol/L calcium chloride, 10 μmol/L zinc sulfate, and 2 mg/mL bovine serum albumin) was mixed with 90 μL of the substrate adjusted to be 20 μmol/L with Assay Buffer B (50 mmol/L Tris-HCl buffer (pH 7.5) containing 200 mmol/L sodium chloride, 5 mmol/L calcium chloride, 10 μmol/L zinc sulfate, and 0.05% PLURONIC F-68), and incubated for reaction at 25° C. or 37° C. for several hours. Moreover, the fluorescence intensities before and after the reaction were measured using a fluorometer to determine the enzyme activity.

Assay [2] deals with T2, Matrix metalloproteinase 14 (MMP-14) (Homo sapiens, UniProt P50281).
T2 construct: purchased Calbiochem 475935
Description: Enzyme inhibition experiment, MMP-14. The settings on record: 444221 substrate, 37° C., 5 hours. Format: biochemical. The procedure:
Matrix metalloproteinase 14 (MMP-14) (manufactured by Calbiochem, product number: 475935)
444221 substrate (DNP-Pro-Cha-Gly-Cys(Me)-His-Ala-Lys(Nma)-NH2, custom synthesis): excitation wavelength at 355 nm, emission wavelength at 460 nm
as §1, with “activity. An inhibition rate was obtained based on the enzyme activities in the presence and absence of the test substances, and the 50% inhibitory concentration (IC50) was calculated.” for “activity.”

For assay [3], the target named is T3, Matrix metalloproteinase 9 (MMP-9) (Homo sapiens, UniProt P14780).
T3 construct: purchased Calbiochem 444231
T3 sequence (P14780 94-707): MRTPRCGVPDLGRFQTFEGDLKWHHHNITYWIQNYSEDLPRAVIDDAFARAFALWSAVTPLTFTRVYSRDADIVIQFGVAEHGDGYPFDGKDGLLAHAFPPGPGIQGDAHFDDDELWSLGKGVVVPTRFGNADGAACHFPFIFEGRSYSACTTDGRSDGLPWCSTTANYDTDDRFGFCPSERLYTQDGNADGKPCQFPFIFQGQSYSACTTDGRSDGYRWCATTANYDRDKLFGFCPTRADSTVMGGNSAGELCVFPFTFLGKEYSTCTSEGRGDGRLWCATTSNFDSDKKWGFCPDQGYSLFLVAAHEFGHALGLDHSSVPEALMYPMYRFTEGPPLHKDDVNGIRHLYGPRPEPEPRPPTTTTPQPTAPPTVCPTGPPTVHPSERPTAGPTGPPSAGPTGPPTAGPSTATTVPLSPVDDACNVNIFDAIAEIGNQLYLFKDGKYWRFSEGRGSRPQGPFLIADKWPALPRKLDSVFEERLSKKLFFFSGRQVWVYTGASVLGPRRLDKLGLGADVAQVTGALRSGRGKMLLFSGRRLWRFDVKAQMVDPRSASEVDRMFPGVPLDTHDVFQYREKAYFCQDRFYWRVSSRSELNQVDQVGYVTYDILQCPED
As to the kind of experiment: Enzyme inhibition experiment, MMP-9. The following applies: 444221 substrate, 37° C., 4 hours. It counts as biochemical. The procedure:
as §1

The target of assay [4] is T4, Matrix metalloproteinase 3 (MMP-3) (Homo sapiens, UniProt P08254).
T4 construct: purchased Calbiochem 444217
T4 sequence (P08254 100-272 limits assumed): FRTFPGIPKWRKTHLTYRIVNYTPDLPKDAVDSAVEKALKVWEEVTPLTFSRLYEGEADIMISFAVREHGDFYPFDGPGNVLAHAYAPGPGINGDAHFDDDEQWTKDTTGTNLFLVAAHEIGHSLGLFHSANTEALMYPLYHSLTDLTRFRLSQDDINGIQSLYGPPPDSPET
Description: Enzyme inhibition experiment, MMP-3. Format: biochemical. The following applies: 3168 substrate, 37° C., 4 hours. The procedure: Matrix metalloproteinase 3 (MMP-3) (manufactured by Calbiochem, product number: 444217)
3168 substrate (MOCAc-Arg-Pro-Lys-Pro-Val-Glu-Nva-Trp-Arg-Lys(Dnp)-NH2, manufactured by Peptide Institute, Inc.): excitation wavelength at 320 nm, emission wavelength at 405 nm, and 3163 substrate (MOCAc-Pro-Leu-Gly-Leu-A2pr(Dnp)-Ala-Arg-NH2, manufactured by Peptide Institute, Inc.): excitation wavelength at 320 nm, emission wavelength at 405 nm.
as §1, with “activity. An inhibition rate was obtained based on the enzyme activities in the presence and absence of the test substances, and the 50% inhibitory concentration (IC50) was calculated.” for “activity.”

The target of assay [5] is T5, Matrix metalloproteinase 1 (MMP-1) (Homo sapiens, UniProt P03956).
T5 construct: purchased Calbiochem 444208
T5 sequence (P03956 100-469): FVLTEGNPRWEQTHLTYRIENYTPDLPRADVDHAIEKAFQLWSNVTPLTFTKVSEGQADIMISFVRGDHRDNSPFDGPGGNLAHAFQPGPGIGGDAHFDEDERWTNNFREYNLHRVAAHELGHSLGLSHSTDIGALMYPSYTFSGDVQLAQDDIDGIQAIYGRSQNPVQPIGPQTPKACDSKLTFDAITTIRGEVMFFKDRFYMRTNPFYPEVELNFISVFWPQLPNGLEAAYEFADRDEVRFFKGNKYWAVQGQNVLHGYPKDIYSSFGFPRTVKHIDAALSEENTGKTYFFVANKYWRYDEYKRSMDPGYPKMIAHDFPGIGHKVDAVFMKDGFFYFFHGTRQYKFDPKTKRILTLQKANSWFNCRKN
Description: Enzyme inhibition experiment, MMP-1. It counts as biochemical. The following applies: 444221 substrate, 37° C., 5 hours. The procedure:
as §1, with “activity. An inhibition rate was obtained based on the enzyme activities in the presence and absence of the test substances, and the 50% inhibitory concentration (IC50) was calculated.” for “activity.”

In assay [6] the target is T6, TACE expressed on the macrophage-like cells (THP-1) (Homo sapiens, UniProt P78536).
T6 construct: host or cells: THP-1 cells differentiated with PMA into macrophage-like cells
T6 sequence (P78536 215-824): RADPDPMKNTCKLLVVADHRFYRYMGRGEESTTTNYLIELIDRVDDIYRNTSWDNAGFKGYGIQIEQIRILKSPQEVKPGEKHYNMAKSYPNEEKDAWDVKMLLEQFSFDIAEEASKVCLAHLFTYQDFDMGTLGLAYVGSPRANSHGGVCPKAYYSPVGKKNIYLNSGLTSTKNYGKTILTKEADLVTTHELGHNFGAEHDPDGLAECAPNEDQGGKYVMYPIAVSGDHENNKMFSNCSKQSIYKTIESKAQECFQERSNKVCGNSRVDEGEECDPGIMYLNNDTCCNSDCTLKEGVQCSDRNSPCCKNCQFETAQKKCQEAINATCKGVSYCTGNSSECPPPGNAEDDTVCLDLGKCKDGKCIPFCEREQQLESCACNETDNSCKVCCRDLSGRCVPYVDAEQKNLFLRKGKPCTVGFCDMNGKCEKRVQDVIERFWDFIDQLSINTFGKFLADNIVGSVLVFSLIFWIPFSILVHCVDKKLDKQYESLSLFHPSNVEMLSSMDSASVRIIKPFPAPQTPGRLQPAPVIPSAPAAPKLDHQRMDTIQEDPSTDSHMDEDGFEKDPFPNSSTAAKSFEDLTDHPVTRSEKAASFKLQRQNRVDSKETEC
As to the kind of experiment: Cellular TACE inhibition experiment (LPS-induced TNF-α production in PMA-differentiated THP-1 cells). Format: cell-based. The settings on record: for IC50: THP-1 macrophage-like cells, LPS 1 μg/mL, 6 hours, read-out: IC50 TNFα production. The procedure:
After the differentiation, the medium was discarded, and the cells were washed with THP-1 washing buffer (RPMI 1640, 20 mM HEPES-NaOH (pH 7.4)). After the washing of the cells, a THP-1 assay buffer (RPMI 1640, 20 mmol/L HEPES-NaOH (pH 7.4), 0.01 w/v % PF-68, 10 v/v % FBS) was added thereto at 100 μL/well. Then, a THP-1 assay buffer containing the test substance (I-1 or 1-4) was further added at 50 μL/well and mixed by tapping. After incubation in a CO2 incubator for 30 to 45 minutes, a THP-1 assay buffer containing LPS was added at 50 μL/well (the final concentration of LPS was 1 μg/mL). Further, the plate was tapped for mixing, followed by incubation in the CO2 incubator for 6 hours. After the incubation was finished, human TNF-α concentration in the culture supernatant was measured with a commercially available kit (Human TNF-α CytoSet (manufactured by BIOSOURCE) or Human TNF-α Ready-Set-Go! (manufactured by eBioscience, Inc.)).

T1 sequence (P22894 101-467): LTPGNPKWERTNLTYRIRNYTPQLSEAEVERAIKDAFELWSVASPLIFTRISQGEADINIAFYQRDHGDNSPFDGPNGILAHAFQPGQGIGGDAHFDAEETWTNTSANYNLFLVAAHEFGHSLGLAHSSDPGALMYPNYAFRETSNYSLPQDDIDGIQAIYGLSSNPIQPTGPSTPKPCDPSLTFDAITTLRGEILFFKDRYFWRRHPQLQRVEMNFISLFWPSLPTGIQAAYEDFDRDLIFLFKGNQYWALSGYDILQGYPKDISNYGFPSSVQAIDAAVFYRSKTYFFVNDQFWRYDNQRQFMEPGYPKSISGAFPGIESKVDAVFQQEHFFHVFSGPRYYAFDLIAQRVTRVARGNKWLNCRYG

With `CC#CCOc1ccc(S(=O)(=O)CC(c2ccc(CN(CC)CC)cc2)N(O)C=O)cc1` (centres unmarked) [Compound I-1, N-[2-(4-But-2-ynyloxybenzenesulfonyl)-1-(4-diethylaminomethylphenyl)ethyl]-N-hydroxyformamide], the IC50 in assay [1] was 0.9 µM; in assay [2], 1 µM; in assay [3] it was 11 µM; in assay [4] it was 8.3 µM; in assay [5] it was greater than 100 µM; in assay [6] it was 1.2 µM. Moreover, the “inhibitory activity on TACE expressed on the macrophage-like cells (in words)” value in assay [6] is given as “inhibitory activity was confirmed”.

Regarding `CC#CCOc1ccc(S(=O)(=O)CC(c2ccc(CNS(C)(=O)=O)cc2)N(O)C=O)cc1` (centres unmarked) [Compound I-4, N-{4-[2-(4-But-2-ynyloxybenzenesulfonyl)-1-(formylhydroxyamino)ethyl]benzyl}methanesulfonamide], the 50% inhibitory concentration (IC50) was 0.95 µM in assay [1]; 1.4 µM in assay [2]; 11 µM in assay [3]; 6.5 µM in assay [4]; greater than 100 µM in assay [5]; 0.625 µM in assay [6]. Further, the “inhibitory activity on TACE expressed on the macrophage-like cells (in words)” value in assay [6] is reported as “inhibitory activity was confirmed”.
